Experimental data: patent US20240382557A1, “INHIBITION OF TUMOR NECROSIS FACTOR, PRO-INFLAMMATORY CYTOKINES AND OTHER INFLAMMATORY RESPONSE MEDIATORS” (Allegro Pharmaceuticals, LLC, priority 2021, published 2024)
Where a SMILES comes first, the peptide text is derived from it. [ ]: non-standard residue; d: D form. Cya = N[C@@H](CS(=O)(=O)O)C(=O)O

How the values were obtained:
[1] = test system: Human umbilical vein endothelial cells (HUVEC); assay: RNA-seq gene expression in HUVEC treated with hypoxia and cytokines; assay type: cell-based
Text: Purpose: A chronic pro-inflammatory condition is associated with many ocular diseases, including DED, AMD, and DR. During this process, tissue resident and peripheral immune cells are activated and contribute to formation of a cytotoxic inflammatory state that causes tissue damage and vision loss. In this study, RNA-seq was used to unbiasedly identify the genes regulated by risuteganib treatment in human endothelial cells exposed to hypoxia and cytokines. Analysis of the specific subset of genes regulated by risuteganib enables identification of biological processes and pathways modulated by the oligopeptide.
Methods: Human umbilical vein endothelial cells (HUVEC) were used between passage 3 to 5. All cells were grown at 3% O2 to stimulate endothelial cells into a more angiogenic state. Cells were divided into four treatment groups: control, cytokines for 48 hours, 500 uM risuteganib for 24 hours, and cytokines for 48 hours with 500 uM risuteganib for 24 hours. Cytokine treatment contains both human TNF-a and IL-1b at 1 ng/ml at final concentration. After exposure, cells were collected and their total RNA isolated for RNA-seq. The generated reads were then aligned to human reference genome/transcriptome and gene expression quantified for differential expression analysis and fold change calculation. The list of regulated genes was then used to identify biological processes and pathways that are regulated after risuteganib exposure with cytokine exposure.

[2] = Intravenous infusion to dogs, toxicity; assay type: in vivo; details: 1.0 mg/kg, 5.0 mg/kg and 8.0 mg/kg
Procedure: The peptides disclosed herein may be administered at any effective dosages, as a single dose or multiple doses, and by any suitable routes of administration. For some systemic treatments, administration by injection or intravenous infusion may be preferable. […] Accordingly, in at least some applications, risuteganib may be administered, for example, by intravenous infusion at a dosage ranging from 1 mg/kg to 8 mg/kg. Other dosage levels and other routes of administration may also be suitable and effective.

[3] = 3% O2, 500 uM risuteganib for 24 hours

C[C@@H](O)[C@H](NC(=O)[C@H](CS(=O)(=O)O)NC(=O)CNC(=O)[C@H](CCCNC(=N)N)NC(=O)CN)C(=O)N1CCC[C@H]1C(=O)O [Risuteganib, Glycyl-L-arginylglycyl-3-sulfo-L-alanyl-L-threonyl-L-proline] (H-GRG[Cya]TP-OH)
CCL2 Mean Expression Rate (Normalized as Fraction Control) [1, 3]: 0.8696
CCL20 Mean Expression Rate (Normalized as Fraction Control) [1, 3]: 0.6328
CFH Mean Expression Rate (Normalized as Fraction Control) [1, 3]: 0.9706
CXCL5 Mean Expression Rate (Normalized as Fraction Control) [1, 3]: 1.166
CXCL6 Mean Expression Rate (Normalized as Fraction Control) [1, 3]: 0.9699
IL6 Mean Expression Rate (Normalized as Fraction Control) [1, 3]: 0.9982
IL7R Mean Expression Rate (Normalized as Fraction Control) [1, 3]: 1.036
SELE Mean Expression Rate (Normalized as Fraction Control) [1, 3]: 0.7022
TNFAIP3 Mean Expression Rate (Normalized as Fraction Control) [1, 3]: 0.946
TNFAIP6 Mean Expression Rate (Normalized as Fraction Control) [1, 3]: 0
TNFRSF11B Mean Expression Rate (Normalized as Fraction Control) [1, 3]: 0.8931
genes regulated by both risuteganib and cytokines that are regulated in opposite directions ([1]; 342/403 genes): 85%
reversing the transcriptome changes associated with cytokine treatment (Pearson's r) ([1]; cytokine-activated condition): −0.267
number of pathways down-regulated by risuteganib (pathway analysis) ([1]; incl. cytokine-cytokine receptor interaction, TNF signaling, IL-17 signaling): 10
toxicity or side effects [2]: without significant toxicity or side effects
